What was measured:
[1] = molecular target: T1, human phosphodiesterase-3A (Homo sapiens, UniProt Q14432); assay: PDE3 assay (formation of 5'AMP from cAMP, SPA); type: biochemical; settings: human recombinant enzyme expressed in Sf9 cells
T1 construct: host or cells: Sf9 (Spodoptera frugiperda)
Procedure: Evaluation of the effects of compounds on the activity of the human phosphodiesterase-3A is quantified by measuring the formation of 5′AMP from cAMP using a human recombinant enzyme expressed in a clonal isolate of Spodoptera frugiperda cells (Sf9) cells.
The test compound, reference compound or water (control) are added to a buffer containing 40 mM tris(hydroxymethyl)aminomethane (Tris)/HCl (pH 7.4) and 8 mM MgCl2, 450 nMcAMP and 0.25 μCi [3H]cAMP.
Thereafter, the reaction is initiated by addition of the enzyme (about 1 U) and the mixture is incubated for 20 min at 22° C.
For basal control measurements, the enzyme is omitted from the reaction mixture.
Following incubation SPA beads are added. After 30 min at 22° C. under shaking, the amount of [^3H]5′AMP is quantified with a scintillation counter (Topcount, Packard).
The results are expressed as a percent inhibition of the control enzyme activity. The standard inhibitory reference compound is milrinone (CAS number 78415-72-2), which is tested in each experiment at several concentrations to obtain an inhibition curve from which its IC50 value is calculated.

GLP-1R = molecular target: T2, GLP-1R (Homo sapiens, UniProt P43220); assay: EndoC cAMP accumulation assay (HTRF, EndoC-βH1 cells); type: cell-based; settings: EndoC-βH1 human pancreatic β cell line
T2 construct: host or cells: EndoC-βH1
Source text: EndoC cAMP Accumulation Assay
A HTRF cAMP assay (cAMP Gs dynamic kit; CisoBio Cat #62AM4PEJ) was used to identify agonists of GLP-1R in a pancreatic insulinoma cell line (EndoC-PH1). […] EndoC-βH1 cells have detectable GLP-1R messenger ribonucleic acid (mRNA) as detected by quantitative polymerase chain reaction (qPCR). […] The EndoC-βH1 cell line is a valid model of human beta cells and applicable for screenings to identify novel drug target candidates (Mol. Metab., 2018, 8, 144-157). CisBio HTRF cAMP kits are based on a competitive immunoassay using cryptate-labelled anti-cAMP antibody and d2-labeled cAMP. The detection kit is intended for the direct quantitative determination of cAMP. The specific signal (i.e. energy transfer) is inversely proportional to the concentration of cAMP in the standard or sample. Test compounds (10 mM in DMSO) were diluted into assay buffer (HBSS (Sigma #H8264) supplemented with 25 mM HEPES (Gibco #15630, pH 7.4), 0.1% BSA (Sigma #A3059) and 0.5 mM IBMX (Sigma #I7018) included fresh on the day of the assay) into 96 well U-bottom plates (Greiner #650201). Diluted compounds were transferred to ECHO source polypropelene plates (Labcyte #P-05525) and dose response curves were dispensed acoustically using ECHO 550 into black shallow-well u-bottom 384-well HTRF Assay Plates (Corning 4514).
Cryovials of EndoC-H1 (supplied at 1×10e^7 cells/vial) were used directly for screening. The cryovials and were removed from N2(l) and thawed rapidly in a 37° C. water bath. The cells were resuspended in assay buffer and centrifuged at 300 g for 5 min. Cells were resuspended in assay buffer at the appropriate concentration, typically at 12e5 cells per mL (3000 cells per well, dependent on cell batch) and 2.5 μL diluted cells were added to all wells of destination plate by Multidrop combi reagent dispenser (Thermofisher). The plates were incubated at rt for 30 min. The assay was stopped by adding 2.5 μL anti-cAMP cryptate solution to all wells and 2.5 μL cAMP-d2 solution (both diluted 1:20 in lysis buffer) to columns 1-22 by Combi drop. A volume of 2.5 μL cAMP-d2 solution was added to wells E23 to P24 and 2.5 μL lysis buffer added to wells A23 to D24 by multichannel pipette. The plates were incubated at rt for 1 h and read on an Envision plate reader using excitation wavelength of 320 nm and emission of 590 nm and 660 nm.
Raw data from Envision is converted to % DeltaF according to the manufacturer's instructions. Dose response curves are analysed via 4-Parameter Logistical Analysis and assay plate Z′ values obtained. Samples are graphed as percentage (%) activation plots compared to GIP (1-42, Bachem H-5645) with assay window defined by negative control as basal cell cAMP levels and positive control are defined by maximum GIP (82.5 nM) signal. GLP-1 (7-36 amide, Bachem H-6795) dose response curve was included on all plates.

human GLP-1R receptor = molecular target: T3, human GLP-1R receptor (Homo sapiens, UniProt P43220, L260F); assay: CHOK1 GLP-1R cAMP assay (HTRF); type: cell-based; settings: CHO-K1 cells stably expressing human GLP-1R
T3 construct: expressed in transfected cells; host or cells: CHO-K1 (ATCC CCL-61)
Procedure: A cell line stably expressing the human GLP-1R receptor (NM_002062.5, including the naturally-occurring variant Leu260Phe) in a CHO-K1 (ATCC® CCL-61™) was used for assay.
GLP-1 receptor mediated agonist activity was determined in a cell-based assay measuring cyclic adenosine monophosphate (cAMP) levels in cells using Homogeneous Time-Resolved Fluorescence (HTRF) cAMP detection kit (CisBio catalog #62AM4PEC, cAMP Gs Dynamic range kit). The cAMP detection method is based on a competitive immunoassay, in which cAMP produced by the cells and cAMP labeled with the dye d2 compete for binding to a Europium-Cryptate-labeled anti-cAMP antibody. The specific HTRF signal is inversely proportional to the concentration of cAMP.
Compounds were added to individual well in 384 well-assay plates (Greiner #784076) using an Echo (LabCyte) dispenser from 10 mM stocks. Varying concentration of compounds were added to wells, and DMSO was used to normalize each well to a volume of 100 nL. A dose response curve of GLP-1(7-36)NH2 (Bachem H-6795) was included in each run. 5 μL of cAMP concentration response standards are applied in specified wells in the assay plates. Cryo-preserved cells are thawed and resuspended in assay buffer pre-heated to 37° C. (20 mM 2-[4-(2-hydroxyethyl)piperazin-1-yl]ethanesulfonic acid (HEPES) pH 7.4, lx Hank's Balanced Salt Solution (HBSS, Life Technologies #14065) supplemented with 0.1% (w/v) bovine serum albumin (Sigma, A-7030)). Cells were centrifuged at 250*g for 5 min at rt, and resuspended in room tempered assay buffer to a final density of 0.16*10^6 cell/mL, to deliver 800 cells/well. 5 μL of assay buffer with 1 mM 3-isobutyl-1-methylxanthin (IBMX; Sigma cat I-7018) was dispensed per well in assay plates using a multidrop combi (Thermo Scientific) subsequently 5 μL of cell suspension was distributed to relevant wells in the assay using a multidrop dispenser. Assay plates were incubated 20 min at rt.
Detection reagents, Europium-Cryptate-labeled anti-cAMP antibody and cAMP labeled with the dye d2, are diluted in lysis buffer, provided by the manufacturer. 5 μL of each detection reagent is supplemented to each assay well using a multidrop dispenser. Assay plates are incubated in the dark for at least one h. The HTRF signal is measured using the HTRF module (excitation: 337 nm, emission A: 665 nm and emission B: 620 nm) in Pherastar FSX (BMG Labtech).
Raw data were converted to pM cAMP using the cAMP standard curve included in each run. Converted data were further analyzed in Genedata Screener (Genedata) and EC50 determinations were made from agonist dose-response curves analyzed with a curve fitting program using a 4-parameter logistic dose response equation (Equation y=A+((B−A)/1+((C/x)^D))) where A is no stimulation, B is full stimulation, C is the EC50 and D is the Hill slope). The percent effect was determined relative to a saturating concentration of a full GLP-1R agonist (GLP-1(7-36)NH2 has 100% effect in this assay setup).

T3 sequence (P43220 24-463 L260F): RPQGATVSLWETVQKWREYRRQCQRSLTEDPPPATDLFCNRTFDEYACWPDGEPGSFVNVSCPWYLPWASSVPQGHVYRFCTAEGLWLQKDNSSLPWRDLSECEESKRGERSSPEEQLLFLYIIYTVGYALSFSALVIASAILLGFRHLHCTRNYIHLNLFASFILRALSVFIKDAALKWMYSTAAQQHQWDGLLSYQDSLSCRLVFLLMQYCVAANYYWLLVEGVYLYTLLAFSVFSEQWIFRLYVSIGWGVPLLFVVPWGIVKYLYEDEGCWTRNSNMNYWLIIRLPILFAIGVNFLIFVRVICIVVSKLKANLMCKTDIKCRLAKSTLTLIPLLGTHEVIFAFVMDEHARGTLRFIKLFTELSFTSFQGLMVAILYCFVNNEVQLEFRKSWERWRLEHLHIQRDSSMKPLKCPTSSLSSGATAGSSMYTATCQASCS
T2 sequence (P43220 24-463): as the sequence (P43220 24-463 L260F) above, with F237L counted along it
T1 sequence (Q14432 whole entry): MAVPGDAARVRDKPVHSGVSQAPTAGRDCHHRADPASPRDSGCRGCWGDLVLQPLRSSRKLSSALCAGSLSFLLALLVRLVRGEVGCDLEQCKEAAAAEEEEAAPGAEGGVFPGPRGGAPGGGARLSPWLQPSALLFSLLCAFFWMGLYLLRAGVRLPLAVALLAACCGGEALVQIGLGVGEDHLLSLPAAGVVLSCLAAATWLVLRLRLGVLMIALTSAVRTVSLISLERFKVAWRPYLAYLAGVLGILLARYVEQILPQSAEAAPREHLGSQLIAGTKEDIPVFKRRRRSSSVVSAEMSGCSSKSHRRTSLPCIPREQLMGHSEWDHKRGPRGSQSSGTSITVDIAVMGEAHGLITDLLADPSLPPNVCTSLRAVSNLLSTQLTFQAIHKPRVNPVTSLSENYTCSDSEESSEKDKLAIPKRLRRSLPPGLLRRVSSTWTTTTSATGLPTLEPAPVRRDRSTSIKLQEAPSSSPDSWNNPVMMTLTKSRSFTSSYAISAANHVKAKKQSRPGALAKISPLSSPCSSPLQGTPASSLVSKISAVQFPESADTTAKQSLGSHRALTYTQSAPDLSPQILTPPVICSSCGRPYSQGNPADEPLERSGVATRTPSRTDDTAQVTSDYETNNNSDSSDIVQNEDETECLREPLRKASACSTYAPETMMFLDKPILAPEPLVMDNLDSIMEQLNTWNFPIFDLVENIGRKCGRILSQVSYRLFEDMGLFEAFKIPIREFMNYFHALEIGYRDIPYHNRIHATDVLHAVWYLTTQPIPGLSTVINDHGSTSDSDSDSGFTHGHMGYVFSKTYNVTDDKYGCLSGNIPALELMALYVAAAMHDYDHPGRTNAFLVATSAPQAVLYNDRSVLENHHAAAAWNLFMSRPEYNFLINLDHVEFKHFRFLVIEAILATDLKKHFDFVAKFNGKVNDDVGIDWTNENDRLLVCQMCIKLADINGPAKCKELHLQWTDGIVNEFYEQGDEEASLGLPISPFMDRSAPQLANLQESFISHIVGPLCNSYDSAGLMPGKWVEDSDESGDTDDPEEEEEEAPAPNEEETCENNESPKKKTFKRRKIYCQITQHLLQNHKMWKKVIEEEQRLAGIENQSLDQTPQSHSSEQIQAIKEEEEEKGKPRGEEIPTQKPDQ

Which results are given for `N#Cc1ccc(COc2cccc(N3CCN(Cc4nc5ccc(C(=O)O)cc5n4C[C@@H]4CCO4)[C@H]4COC[C@H]43)n2)c(F)c1` (racemic) [Example 17, 2-(((4aRS,7aSR)-4-(6-((4-Cyano-2-fluorobenzyl)oxy)pyridin-2-yl)hexahydrofuro[3,4-b]pyrazin-1(2H)-yl)methyl)-1-(((S)-oxetan-2-yl)methyl)-1H-benzo[d]imidazole-6-carboxylic acid]?
IC50 [1]: 3500 nM; EC50 (GLP-1R): 14 nM; EC50 (human GLP-1R receptor): 2 nM

`N#Cc1ccc(COc2cccc(N3CCN(Cc4nc5c(F)cc(C(=O)O)cc5n4C[C@@H]4CCO4)[C@H]4CC[C@@H]43)n2)c(F)c1` (single isomer, unassigned) [Example 3b, 2-(((1R*,6R*)-5-(6-((4-Cyano-2-fluorobenzyl)oxy)pyridin-2-yl)-2,5-diazabicyclo[4.2.0]octan-2-yl)methyl)-4-fluoro-1-(((S)-oxetan-2-yl)methyl)-1H-benzo[d]imidazole-6-carboxylic acid] was tested. Which IC50 [1] did it give?
Its IC50 is 11000 nM.

What about the EC50 (GLP-1R) of the same molecule?
The EC50 was 8.7 nM.

What about the EC50 (human GLP-1R receptor) of the same molecule?
Its EC50 is 1.1 nM.

With `COc1cc(C(=O)O)cc2c1nc(CN1CCN(c3cccc(OCc4ccc(C#N)cc4F)n3)[C@H]3CC[C@@H]31)n2C[C@@H]1CCO1` (single isomer, unassigned) [Example 4a, 2-(((1R*,6R*)-5-(6-((4-Cyano-2-fluorobenzyl)oxy)pyridin-2-yl)-2,5-diazabicyclo[4.2.0]octan-2-yl)methyl)-4-methoxy-1-(((S)-oxetan-2-yl)methyl)-1H-benzo[d]imidazole-6-carboxylic acid] as the molecule, how does the IC50 [1] read?
Its IC50 is 3800 nM.

What about the EC50 (GLP-1R) of the same molecule?
Its EC50 is 5.5 nM.

And the EC50 (human GLP-1R receptor)?
Its EC50 is 4 nM.

For `COc1cc(C(=O)O)cc2c1nc(CN1CCN(c3cccc(OCc4ccc(C#N)cc4F)n3)[C@H]3CC[C@@H]31)n2C[C@@H]1CCO1` (single isomer, unassigned) [Example 4b, 2-(((1R*,6R*)-5-(6-((4-Cyano-2-fluorobenzyl)oxy)pyridin-2-yl)-2,5-diazabicyclo[4.2.0]octan-2-yl)methyl)-4-methoxy-1-(((S)-oxetan-2-yl)methyl)-1H-benzo[d]imidazole-6-carboxylic acid], which IC50 [1] is on record?
Its IC50 is 6500 nM.

And the EC50 (GLP-1R)?
The EC50 was 3 nM.

What about the EC50 (human GLP-1R receptor) of the same molecule?
The EC50 was 0.6 nM.

How did the IC50 [1] turn out when `COc1cc(C(=O)O)cc2c1nc(CN1CCN(c3cccc(OCc4ccc(Cl)cc4F)n3)[C@H]3CC[C@@H]31)n2C[C@@H]1CCO1` (single isomer, unassigned) [Example 5b, 2-(((1R*,6R*)-5-(6-((4-Chloro-2-fluorobenzyl)oxy)pyridin-2-yl)-2,5-diazabicyclo[4.2.0]octan-2-yl)methyl)-4-methoxy-1-(((S)-oxetan-2-yl)methyl)-1H-benzo[d]imidazole-6-carboxylic acid] was run?
The IC50 was > 100000 nM.

What about the EC50 (GLP-1R) of the same molecule?
Its EC50 is 2.1 nM.

And the EC50 (human GLP-1R receptor)?
Its EC50 is 0.5 nM.

`N#Cc1ccc(COc2cccc(N3CCN(Cc4nc5c(Cl)cc(C(=O)O)cc5n4C[C@@H]4CCO4)[C@H]4CC[C@H]43)n2)c(F)c1` (single isomer, unassigned) [Example 6a] was tested. Which IC50 [1] did it give?
The IC50 was 2900 nM.

And the EC50 (GLP-1R)?
Its EC50 is 1.9 nM.

And the EC50 (human GLP-1R receptor)?
The EC50 was 0.6 nM.

Which IC50 [1] does the source give for `N#Cc1ccc(COc2cccc(N3CCN(Cc4nc5c(Cl)cc(C(=O)O)cc5n4C[C@@H]4CCO4)[C@H]4CC[C@H]43)n2)c(F)c1` (single isomer, unassigned) [Example 6c] here?
Its IC50 is 2500 nM.

What about the EC50 (GLP-1R) of the same molecule?
The EC50 was 5.6 nM.

What about the EC50 (human GLP-1R receptor) of the same molecule?
The EC50 was 8.1 nM.

`N#Cc1ccc(COc2cccc(N3CCN(Cc4nc5c(Cl)cc(C(=O)O)cc5n4C[C@@H]4CCO4)[C@H]4CC[C@H]43)n2)c(F)c1` (single isomer, unassigned) [Example 6d] was tested. Which IC50 [1] did it give?
The IC50 was 3000 nM.

What about the EC50 (GLP-1R) of the same molecule?
Its EC50 is 2.4 nM.

What about the EC50 (human GLP-1R receptor) of the same molecule?
Its EC50 is 3.5 nM.

How did the IC50 [1] turn out when `N#Cc1ccc(COc2cccc(N3CCN(Cc4nc5cc(Cl)c(C(=O)O)cc5n4C[C@@H]4CCO4)[C@H]4CC[C@H]43)n2)c(F)c1` (single isomer, unassigned) [Example 7a] was run?
The IC50 was 2200 nM.

What about the EC50 (GLP-1R) of the same molecule?
Its EC50 is 7.2 nM.

What about the EC50 (human GLP-1R receptor) of the same molecule?
Its EC50 is 9.4 nM.

With `N#Cc1ccc(COc2cccc(N3CCN(Cc4nc5cc(F)c(C(=O)O)cc5n4C[C@@H]4CCO4)[C@H]4CC[C@@H]43)n2)c(F)c1` (single isomer, unassigned) [Example 9b] as the molecule, how does the IC50 [1] read?
Its IC50 is 4600 nM.

What about the EC50 (GLP-1R) of the same molecule?
The EC50 was 27 nM.

And the EC50 (human GLP-1R receptor)?
The EC50 was 2.1 nM.

`COc1cc(C(=O)O)cc2c1nc(CN1CCN(c3cccc(OCc4ccc(Cl)cc4F)n3)[C@@H]3COC[C@@H]31)n2C[C@@H]1CCO1` (single isomer, unassigned) [Example 16a, 2-(((4aR*,7aS*)-4-(6-((4-Chloro-2-fluorobenzyl)oxy)pyridin-2-yl)hexahydrofuro[3,4-b]pyrazin-1(2H)-yl)methyl)-4-methoxy-1-(((S)-oxetan-2-yl)methyl)-1H-benzo[d]imidazole-6-carboxylic acid] was tested. Which IC50 [1] did it give?
Its IC50 is 29000 nM.

What about the EC50 (GLP-1R) of the same molecule?
Its EC50 is 1.9 nM.

What about the EC50 (human GLP-1R receptor) of the same molecule?
Its EC50 is 0.63 nM.

Which IC50 [1] does the source give for `N#Cc1ccc(COc2cccc(C3CCN(Cc4nc5ccc(C(=O)O)cc5n4C[C@@H]4CCO4)CC3)n2)c(F)c1` [Ref Comp B, reference compound] here?
Its IC50 is 11000 nM.

— patent US20250115612A1, “CERTAIN 2,5-DIAZABICYCLO[4.2.0]OCTANES AND OCTAHYDROFURO[3,4-B]PYRAZINES AS GLP-1 RECEPTOR MODULATORS” (ASTRAZENECA AB, priority 2021, published 2025)
